Like-named read-outs stand apart in the source and are kept apart here.
Assays:
[1] = tested on: TNF-alpha induced hypothermia; details: dose of 30 mg/kg, according to WO 2014/125444; cited from earlier work
L929 cells = assay: L929 cell necroptosis assay (TNFa + zVAD, CellTiter-Glo); format: cell-based, murine
How it was run: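 Necroptosis was read as CellTiter-Glo luminescence 18 hours after TNFa stimulation at 37° C, 5% CO2. Prior to that, L929 cells (10K/well, plated 18 h) received fresh medium with 40 uM zVAD-fmk plus 4-fold serially diluted compound.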

RIPK1 = RIPK1 (Homo sapiens (Human), UniProt Q13546); assay: RIPK1 ADP-Glo biochemical kinase assay; details: read-out: RIPK1 ADP-Glo Kinase (IC50)
Chain of RIPK1 (Q13546 whole entry, species assumed): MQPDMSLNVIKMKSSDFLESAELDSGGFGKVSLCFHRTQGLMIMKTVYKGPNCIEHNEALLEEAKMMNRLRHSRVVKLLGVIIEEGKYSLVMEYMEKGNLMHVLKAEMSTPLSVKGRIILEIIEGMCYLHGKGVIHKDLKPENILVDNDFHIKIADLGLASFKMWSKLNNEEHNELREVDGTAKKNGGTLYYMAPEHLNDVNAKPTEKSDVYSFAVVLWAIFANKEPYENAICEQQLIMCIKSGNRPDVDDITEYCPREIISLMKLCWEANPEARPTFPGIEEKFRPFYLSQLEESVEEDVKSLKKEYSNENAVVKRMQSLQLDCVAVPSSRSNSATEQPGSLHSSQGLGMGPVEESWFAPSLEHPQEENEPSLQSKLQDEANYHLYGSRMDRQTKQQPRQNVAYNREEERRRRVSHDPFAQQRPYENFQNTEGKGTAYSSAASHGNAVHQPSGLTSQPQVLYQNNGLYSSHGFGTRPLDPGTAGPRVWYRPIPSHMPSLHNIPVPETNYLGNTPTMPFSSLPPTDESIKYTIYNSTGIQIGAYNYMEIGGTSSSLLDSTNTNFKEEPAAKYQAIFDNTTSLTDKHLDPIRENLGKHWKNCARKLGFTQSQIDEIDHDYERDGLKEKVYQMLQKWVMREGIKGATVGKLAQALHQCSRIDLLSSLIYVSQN
Procedure: The final reaction volume was 5.0ul.
Adding 5 μl of ADP-Glo™ terminated the reaction.

U937 cells = assay: U937 cell necroptosis assay (TNFa + zVAD, CellTiter-Glo); format: cell-based, human; details: Homo sapiens
How it was run: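 Necroptosis was induced with TNFa at 2 ng/mL final for 18 h at 37 °C, following 1 h compound pre-incubation in the presence of zVAD-fmk (60 uM for U937 plating medium, 40 uM for L929 medium). Luminescent CellTiter-Glo signal gave relative cell survival.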

[2] = in vivo pharmacokinetics, plasma and brain exposure; details: for Kp: rodents
Source text: Brain penetration may be assessed by evaluating free brain/plasma ratio (Bu/Pu) as measured in vivo pharmacokinetic studies in rodents.

[3] = U-937, read-out: U937 Zvad TNF CTG Recovery, U937, TNFa + zVAD (IC50), U937 cells, TNFa + zVAD

SMILES | inhibition of TNF-alpha induced hypothermia [1] | IC50 (L929 cells; Mus musculus, L929, read-out: L929-CTG-recovery, L929, TNFa + zVAD (IC50), L929 cells, TNFa + zVAD) | IC50 (RIPK1) | IC50 (U937 cells; [3]) | BRAIN AUC0-6 [2] | Kp ([2]; brain/plasma) | IC50 (L929 cells; read-out: L929-CTG-recovery, L929, TNFa + zVAD (IC50), L929 cells, TNFa + zVAD) | IC50 (L929 cells; Mus musculus, L929, L929 cells, TNFa + zVAD, read-out: L929-CTG-recovery, L929, TNFa + zVAD (IC50)) | IC50 (U937 cells; U-937, U937 cells, TNFa + zVAD, read-out: U937 Zvad TNF CTG Recovery, U937, TNFa + zVAD (IC50)) | Kp ([2]; in vivo)
CN1C(=O)[C@@H](NC(=O)c2nnc(Cc3ccccc3)[nH]2)COc2ccccc21 [(S)-5-benzyl-N-(5-methyl-4-oxo-2,3,4,5-tetrahydrobenzo[b][1,4]oxazepin-3-yl)-4H-1,2,4-triazole-3-carboxamide] | 93% |  |  |  |  |  |  |  |  | 
CN1C(=O)[C@@H](NC(=O)c2cc(Oc3ccccc3)ccn2)COc2ccc(C#CC3(C)COC3)cc21 [Compound I-127, (S)—N-(5-methyl-7-((3-methyloxetan-3-yl)ethynyl)-4-oxo-2,3,4,5-tetrahydrobenzo[b][1,4]oxazepin-3-yl)-4-phenoxypicolinamide] |  | 40.6 nM | 29.6 nM | 0.3 nM | 160 | 0.98 |  |  |  | 
CN1C(=O)[C@@H](NC(=O)c2cc(Oc3ccccc3)ccn2)COc2ccc(C#CC(C)(C)N)cc21 [Compound I-139, (S)—N-(7-(3-amino-3-methylbut-1-yn-1-yl)-5-methyl-4-oxo-2,3,4,5-tetrahydrobenzo[b][1,4]oxazepin-3-yl)-4-phenoxypicolinamide] |  |  | 21.2 nM | 7.7 nM | 1100 | 1.29 | 538 nM |  |  | 
COC1(C#Cc2ccc3c(c2)N(C)C(=O)[C@@H](NC(=O)c2cc(Oc4ccccc4)ccn2)CO3)CN(C)C1 [Compound I-155, (S)—N-(7-((3-methoxy-1-methylazetidin-3-yl)ethynyl)-5-methyl-4-oxo-2,3,4,5-tetrahydrobenzo[b][1,4]oxazepin-3-yl)-4-phenoxypicolinamide] |  |  | 24.6 nM |  | 373 | 1.7 |  | 313 nM | 1.3 nM | 
CN1C(=O)[C@@H](NC(=O)n2cc(Cc3ccc(F)cc3)cn2)COc2ccc(N3CC4(CCOCC4)C3)cc21 [Compound I-184, (S)-4-(4-fluorobenzyl)-N-(5-methyl-4-oxo-7-(7-oxa-2-azaspiro[3.5]nonan-2-yl)-2,3,4,5-tetrahydrobenzo[b][1,4]oxazepin-3-yl)-1H-pyrazole-1-carboxamide] |  |  |  |  | 731 |  |  |  |  | 0.93

From US11407736B2 (priority 2019, dated 2022)
